Data: patent publication US7750145B2, “1-substituted-3-β-D-glucopyranosylated nitrogenous hetero-cyclic compounds and medicines containing the same” (Kissei Pharmaceutical Co., Ltd., priority 2004, dated 2010)

Test system: SD rats
Assay: Assay for the effect on urinary glucose excretion
Format: in vivo, rat
Details: overnight fasted male SD rats, oral 1 mg/kg, urine collected for 24 hours
Text: Assay for the Effect on Urinary Glucose Excretion
As experimental animals, overnight fasted SD rats (CHARLES RIVER LABORATORIES JAPAN. Inc., Crj:CD(SD)IGS, male, 7-8 weeks of age, 180-300 g) were used. The test compound was suspended with 0.5% methylcellulose solution and the suspension was used for administration. On the day before drug administration, the rats were transferred in metabolic cages and fasted from the evening. Throughout the study, the rats were given water ad libitum. The test compound was orally administered at the dose of 1 mg/kg and urine collection was performed for 24 hours after the compound administration. The rats were fed ad libitum from 4 hours after the compound administration. The volume of urine collected was measured and a part of urine was used as a sample for glucose concentration measurement. The samples were diluted as appropriate and the glucose concentrations were measured with Glucose CII-Test WAKO (Wako Pure Chemical Industries, Ltd.) and the amount of urinary glucose excretion per 200 g of body weight was calculated.

Compound | Amount of urinary excretion of glucose in 24 hours [mg/200 g body weight]
CCc1ccc(Cn2cc([C@@H]3O[C@H](CO)[C@@H](O)[C@H](O)[C@H]3O)c3c(C)cccc32)cc1 [Example 1, 1-(4-Ethylbenzyl)-3-(β-D-glucopyranosyl)-4-methyl-1H-indole] | 182
COc1ccc(Cn2cc([C@@H]3O[C@H](CO)[C@@H](O)[C@H](O)[C@H]3O)c3c(C)cccc32)cc1 [Example 2] | 27
CCc1ccc(Cn2cc([C@@H]3O[C@H](CO)[C@@H](O)[C@H](O)[C@H]3O)c3ccccc32)cc1 [Example 3] | 15
CCc1ccc(Cn2cc([C@@H]3O[C@H](CO)[C@@H](O)[C@H](O)[C@H]3O)c3cccc(C)c32)cc1 [Example 5] | 76
CCc1ccc(Cn2cc([C@@H]3O[C@H](CO)[C@@H](O)[C@H](O)[C@H]3O)c3cc(C)ccc32)cc1 [Example 7] | 122
Cc1ccc2c(c1)c([C@@H]1O[C@H](CO)[C@@H](O)[C@H](O)[C@H]1O)cn2Cc1ccc(OC(C)C)cc1 [Example 11] | 33
COc1ccc(Cn2cc([C@@H]3O[C@H](CO)[C@@H](O)[C@H](O)[C@H]3O)c3c(C)cccc32)c(F)c1 [Example 28] | 36
CCc1ccc(Cn2cc([C@@H]3O[C@H](CO)[C@@H](O)[C@H](O)[C@H]3O)c3cccc(F)c32)cc1 [Example 61] | 98
COc1ccc(Cn2cc([C@@H]3O[C@H](CO)[C@@H](O)[C@H](O)[C@H]3O)c3cccc(F)c32)cc1 [Example 63] | 213
OC[C@H]1O[C@@H](c2cn(Cc3ccc(OC(F)F)cc3)c3c(F)cccc23)[C@H](O)[C@@H](O)[C@@H]1O [Example 66] | 24
OCCc1ccc(Cn2cc([C@@H]3O[C@H](CO)[C@@H](O)[C@H](O)[C@H]3O)c3cccc(F)c32)cc1 [Example 67] | 17
Cc1ccc(Cn2cc([C@@H]3O[C@H](CO)[C@@H](O)[C@H](O)[C@H]3O)c3cccc(Cl)c32)cc1 [Example 70] | 173
CCc1ccc(Cn2cc([C@@H]3O[C@H](CO)[C@@H](O)[C@H](O)[C@H]3O)c3cccc(Cl)c32)cc1 [Example 71] | 517
COc1ccc(Cn2cc([C@@H]3O[C@H](CO)[C@@H](O)[C@H](O)[C@H]3O)c3cccc(Cl)c32)cc1 [Example 73] | 532
COc1ccc(Cn2cc([C@@H]3O[C@H](CO)[C@@H](O)[C@H](O)[C@H]3O)c3cccc(Cl)c32)c(F)c1 [Example 74] | 629
CCOc1ccc(Cn2cc([C@@H]3O[C@H](CO)[C@@H](O)[C@H](O)[C@H]3O)c3cccc(Cl)c32)c(F)c1 [Example 75] | 18
OCCc1ccc(Cn2cc([C@@H]3O[C@H](CO)[C@@H](O)[C@H](O)[C@H]3O)c3cccc(Cl)c32)cc1 [Example 78] | 54
Cc1ccc(Cn2cc([C@@H]3O[C@H](CO)[C@@H](O)[C@H](O)[C@H]3O)c3cc(C)cc(F)c32)cc1 [Example 93] | 275
CCc1ccc(Cn2cc([C@@H]3O[C@H](CO)[C@@H](O)[C@H](O)[C@H]3O)c3cc(C)cc(F)c32)cc1 [Example 94] | 945
Cc1cc(F)c2c(c1)c([C@@H]1O[C@H](CO)[C@@H](O)[C@H](O)[C@H]1O)cn2Cc1ccc(O)cc1 [Example 95] | 40

Compound | Amount of urinary excretion of glucose in 24 hours [mg/200 g body weight]
COc1ccc(Cn2cc([C@@H]3O[C@H](CO)[C@@H](O)[C@H](O)[C@H]3O)c3cc(C)cc(F)c32)cc1 [Example 96] | 588
COc1ccc(Cn2cc([C@@H]3O[C@H](CO)[C@@H](O)[C@H](O)[C@H]3O)c3cc(C)cc(F)c32)c(F)c1 [Example 97] | 507
Cc1cc(F)c2c(c1)c([C@@H]1O[C@H](CO)[C@@H](O)[C@H](O)[C@H]1O)cn2Cc1ccc(CCO)cc1 [Example 99] | 47
Cc1ccc(Cn2cc([C@@H]3O[C@H](CO)[C@@H](O)[C@H](O)[C@H]3O)c3cc(C)cc(Cl)c32)cc1 [Example 102] | 933
Cc1cc(Cl)c2c(c1)c([C@@H]1O[C@H](CO)[C@@H](O)[C@H](O)[C@H]1O)cn2Cc1ccc(O)cc1 [Example 104] | 349
COc1ccc(Cn2cc([C@@H]3O[C@H](CO)[C@@H](O)[C@H](O)[C@H]3O)c3cc(C)cc(Cl)c32)cc1 [Example 105] | 1693
COc1ccc(Cn2cc([C@@H]3O[C@H](CO)[C@@H](O)[C@H](O)[C@H]3O)c3cc(C)cc(Cl)c32)c(F)c1 [Example 106] | 1910
Cc1cc(Cl)c2c(c1)c([C@@H]1O[C@H](CO)[C@@H](O)[C@H](O)[C@H]1O)cn2Cc1ccc(OC(F)F)cc1 [Example 108] | 1229
COc1ccc(Cn2cc([C@@H]3O[C@H](CO)[C@@H](O)[C@H](O)[C@H]3O)c3cc(C)cc(C)c32)cc1 [Example 114] | 520
CCc1ccc(Cn2cc([C@@H]3O[C@H](CO)[C@@H](O)[C@H](O)[C@H]3O)c3c(C)ccc(F)c32)cc1 [Example 116] | 24
COc1ccc(Cn2cc([C@@H]3O[C@H](CO)[C@@H](O)[C@H](O)[C@H]3O)c3c(C)ccc(F)c32)cc1 [Example 118] | 12
COc1ccc(Cn2cc([C@@H]3O[C@H](CO)[C@@H](O)[C@H](O)[C@H]3O)c3c(C)ccc(Cl)c32)cc1 [Example 124] | 37
COc1ccc(Cn2cc([C@@H]3O[C@H](CO)[C@@H](O)[C@H](O)[C@H]3O)c3c(C)ccc(Cl)c32)c(F)c1 [Example 125] | 50
CCOc1ccc(Cn2cc([C@@H]3O[C@H](CO)[C@@H](O)[C@H](O)[C@H]3O)c3cccc(F)c32)cc1 [Example 144] | 251
CC(C)Oc1ccc(Cn2cc([C@@H]3O[C@H](CO)[C@@H](O)[C@H](O)[C@H]3O)c3cccc(F)c32)cc1 [Example 145] | 11
CCOc1ccc(Cn2cc([C@@H]3O[C@H](CO)[C@@H](O)[C@H](O)[C@H]3O)c3cccc(Cl)c32)cc1 [Example 146] | 733
CC(C)Oc1ccc(Cn2cc([C@@H]3O[C@H](CO)[C@@H](O)[C@H](O)[C@H]3O)c3cccc(Cl)c32)cc1 [Example 147] | 295
CCOc1ccc(Cn2cc([C@@H]3O[C@H](CO)[C@@H](O)[C@H](O)[C@H]3O)c3cc(C)cc(F)c32)cc1 [Example 156] | 784
CCOc1ccc(Cn2cc([C@@H]3O[C@H](CO)[C@@H](O)[C@H](O)[C@H]3O)c3cc(C)cc(Cl)c32)cc1 [Example 158] | 1708
